Several values for one entry are separate records, joined by “and”; a condition that tells them apart may be missing. Identical values can stand only once.

In series [1] the test system is LPS-GalN induced liver injury. As to the kind of experiment: LPS-GalN model, treatment 2 h post LPS-GalN: liver histopathological score.
For series [2], the system named is LPS-GalN induced acute lung injury. As to the kind of experiment: LPS-GalN model, treatment 2 h post LPS-GalN: lung histopathological (ALI) score. The conditions noted are these: for Mean±SE ALI score: scale 0 to 4.
The subject of series [3] is LPS-GalN challenged mice. As to the kind of experiment: LPS-GalN model of fatal cytokine storm and sepsis, treatment 2 h post LPS-GalN: 24 h survival.
For series [4] the following is noted: cited from earlier work; for Approximate Equivalent Dose: equivalent to 0.75 mg dexamethasone.
The mark [5] stands for this setting: low dose RJX, standard dose DEX, alone or combined, 2 h post LPS-GalN.
The mark [6] stands for this setting: DEX 0.1 mg/kg i.p. 2 h post LPS-GalN, n=6.
Where [7] appears, read: DEX 0.6 mg/kg i.p. 2 h post LPS-GalN, n=6.
Setting [8] is: DEX 6.0 mg/kg i.p. 2 h post LPS-GalN, n=6.
Setting [9] is: RJX 0.7 ml/kg, DEX 0.6 mg/kg, alone or combined, 2 h post LPS-GalN.

Consider `C[C@@H]1C[C@H]2[C@@H]3CCC4=CC(=O)C=C[C@]4(C)[C@@]3(F)[C@@H](O)C[C@]2(C)[C@@]1(O)C(=O)CO` [DEX, dexamethasone], for which the “histopathological liver damage score (Mean±SE)” value in series [1] (DEX 0.1 mg/kg) came to 3.3±0.2. Also, in series [1] (DEX 0.6 mg/kg), the “histopathological liver damage score (Mean±SE)” value is on record as 2.7±0.2 and the liver score median came to 3. Further, in series [1] (DEX 6.0 mg/kg), the “histopathological liver damage score (Mean±SE)” value was 2.3±0.2 and the liver score median is on record as 3. In series [1] (DEX (0.1)), the “liver histopathological scores, range” value is reported as 3-4. Also, in series [1] (setting [5]), the “Liver Histopathological Score: ≥3 (severe damage or more), percent of mice” value is recorded as 50%. Also, in series [2] (DEX 0.1 mg/kg), the “lung histopathological ALI score, Median” value was 3.5; the “lung histopathological ALI scores, range” value was 3-4; the “Mean±SE ALI score” value came to 3.5±0.2. In addition, in series [2] (DEX 0.6 mg/kg), the “lung histopathological ALI score, Median” value worked out at 3; the “lung histopathological ALI scores, range” value is reported as 2-4; the “Mean±SE ALI score” value was 2.8±0.3. Also, in series [2] (DEX 6.0 mg/kg), the “lung histopathological ALI score, Median” value is reported as 2; the “lung histopathological ALI scores, range” value was 1-3; the “Mean±SE ALI score” value is reported as 1.8±0.3. Moreover, the “Lung Histopathological Score: ≥3 (severe damage or more), percent of mice” value in series [2] (setting [5]) is given as 50%. The “ALI score of a representative mouse” value in series [2] (single dose at 2 hours post-LPS-GalN, sacrificed at 24 hours, low dose RJX, high dose DEX or both) is 2. Further, in series [3] (setting [6]), the Censored amounted to 1, the Events is 5, the “Median (survival)” value is recorded as 5.1 h and the “Proportion (events; 24-h mortality)” value is 83.3%. In series [3] (setting [7]), the Censored was found to be 3, the Events came to 3, the “Median (survival)” value was 15.0 h and the “Proportion (events; mortality)” value came to 50.0%. In series [3] (setting [8]), the Censored worked out at 4, the Events is listed as 2 and the “Proportion (events; mortality)” value was 33.3%. The Censored in series [3] (RJX 0.7 ml/kg (6-fold diluted 4.2 mL/kg), DEX 0.6 mg/kg, alone or combined, 2 h post LPS-GalN) was 5. In series [3] (setting [9]), the Events stood at 5, the “Median (survival)” value is given as 17.6 h and the “Proportion (events)” value turned out to be 50.0%.

With `C[C@]12CCC(=O)C=C1CC[C@@H]1[C@@H]2C(=O)C[C@@]2(C)[C@H]1CC[C@]2(O)C(=O)CO` [Cortisone], the “Approximate Equivalent Dose” value in series [4] was 25 mg.

Turning to `C[C@]12CCC(=O)C=C1CC[C@@H]1[C@@H]2[C@@H](O)C[C@@]2(C)[C@H]1CC[C@]2(O)C(=O)CO` [Hydrocortisone], the “Approximate Equivalent Dose” value in series [4] is reported as 20 mg.

Regarding `C[C@]12CCC(=O)C=C1CC[C@H]1[C@@H]3CC[C@](O)(C(=O)CO)[C@@]3(C)C[C@H](O)[C@@]12F` [Fludrocortisone], in series [4], the “Anticipated Half-life” value is 12 to 26 h and 12 to 36 h.

On to `C[C@]12C=CC(=O)C=C1CC[C@H]1[C@@H]3C[C@@H](O)[C@](O)(C(=O)CO)[C@@]3(C)C[C@H](O)[C@@]12F` [Triamcinolone], for which the “Approximate Equivalent Dose” value in series [4] is recorded as 4 mg.

Take `C[C@]12C=CC(=O)C=C1CC[C@@H]1[C@@H]2[C@@H](O)C[C@@]2(C)[C@H]1CC[C@]2(O)C(=O)CO` [Prednisolone]: the “Approximate Equivalent Dose” value in series [4] is reported as 5 mg.

The values above are taken from patent US20220096538A1, “PHARMACEUTICAL COMPOSITIONS AND METHODS FOR PREVENTION AND/OR TREATMENT OF INFLAMMATION” (priority 2020, published 2022).
